Tested on: aged-impaired (AI) rats
Assay: Radial Arm Maze (RAM) behavioral task, spatial memory retention
Type: in vivo, rat
Conditions: 3 mg/kg i.p., two-hour delay RAM
Protocol: The effects of methyl 3,5-diphenylpyridazine-4-carboxylate on the in vivo spatial memory retention of aged-impaired (AI) rats were assessed in a Radial Arm Maze (RAM) behavioral task using vehicle control and four different dosage levels of methyl 3,5-diphenylpyridazine-4-carboxylate (0.1 mg/kg, 0.3 mg/kg, 1 mg/kg and 3 mg/kg, ip). RAM behavioral tasks were performed on eight AI rats. All five treatment conditions (vehicle and four dosage levels) were tested on all eight rats.
The RAM apparatus used consisted of eight equidistantly-spaced arms. An elevated maze arm (7 cm width×75 cm length) projected from each facet of an octagonal center platform (30 cm diameter, 51.5 cm height). Clear side walls on the arms were 10 cm high and were angled at 65° to form a trough. A food well (4 cm diameter, 2 cm deep) was located at the distal end of each arm. Froot Loops™ (Kellogg Company) were used as rewards. Blocks constructed of Plexiglas™ (30 cm height×12 cm width) could be positioned to prevent entry to any arm. Numerous extra maze cues surrounding the apparatus were also provided.
The AI rats were initially subjected to a pre-training test (Chappell et al. Neuropharmacology 37: 481-487, 1998). The pre-training test consisted of a habituation phase (4 days), a training phase on the standard win-shift task (18 days) and another training phase (14 days) in which a brief delay was imposed between presentation of a subset of arms designated by the experimenter (e.g., 5 arms available and 3 arms blocked) and completion of the eight-arm win-shift task (i.e., with all eight arms available).
In the habituation phase, rats were familiarized to the maze for an 8-minute session on four consecutive days. In each of these sessions, food rewards were scattered on the RAM, initially on the center platform and arms and then progressively confined to the arms. After this habituation phase, a standard training protocol was used, in which a food pellet was located at the end of each arm. Rats received one trial each day for 18 days. Each daily trial terminated when all eight food pellets had been obtained or when either 16 choices were made or 15 minutes had elapsed. After completion of this training phase, a second training phase was carried out in which the memory demand was increased by imposing a brief delay during the trial. At the beginning of each trial, three arms of the eight-arm maze were blocked. Rats were allowed to obtain food on the five arms to which access was permitted during this initial “information phase” of the trial. Rats were then removed from the maze for 60 seconds, during which time the barriers on the maze were removed, thus allowing access to all eight arms. […]

## COC(=O)c1c(-c2ccccc2)cnnc1-c1ccccc1 [methyl 3,5-diphenylpyridazine-4-carboxylate]
  average no. of errors ± SEM in retention test: 1.31±0.40
  memory performance relative to vehicle control: significantly improved memory performance
